Assay results as given in patent US20260183295A1, “METHODS AND COMPOSITIONS FOR TREATING CANCER” (Onconova Therapeutics, Inc., priority 2022, published 2026).

Key:
Experiment in all cases: CETSA-MS, MDA-MB-231 intact cells
Format in all cases: cell-based
Conditions in all cases: 2 μM and 20 μM
AP2A1 = target: T1, AP2A1 (Homo sapiens, UniProt O95782)
T1 construct: endogenous in cells; host or cells: MDA-MB-231
Experimental: (§1) TNBC MDA-MB-231 cells were grown at 37° C. in 5% CO2 and suspended in warm media and split into 4 equal volumes. […] Cells were incubated and then pelleted. Following pelleting, the cells were washed, resuspended, and heated in a thermal gradient. Following heating, the samples were flash frozen and lysed in lysis buffer, agitated by vortex, and sonicated prior to centrifugation. The supernatant was collected and denaturation buffer added. Cold acetone was then added to the cell samples, and protein collected by centrifugation. Pellets were then washed twice with cold acetone and the washed pellets prior to labeling.
(§2) The intact cell protein samples and lysate protein samples were then digested and labeled for mass spectrometry analysis according to the manufacturer's recommended protocols. Digested and labeled protein samples were analyzed by mass spectrometry proteomic analysis and the resulting protein targets were analyzed and plotted.

BMP2K = target: T2, BMP2K (Homo sapiens, UniProt Q9NSY1)
T2 construct: endogenous in cells; host or cells: MDA-MB-231
Experimental: as §1, §2

BOD1L1 = target: T3, BOD1L1 (Homo sapiens, UniProt Q8NFC6)
T3 construct: endogenous in cells; host or cells: MDA-MB-231
T3 sequence (Q8NFC6 whole entry): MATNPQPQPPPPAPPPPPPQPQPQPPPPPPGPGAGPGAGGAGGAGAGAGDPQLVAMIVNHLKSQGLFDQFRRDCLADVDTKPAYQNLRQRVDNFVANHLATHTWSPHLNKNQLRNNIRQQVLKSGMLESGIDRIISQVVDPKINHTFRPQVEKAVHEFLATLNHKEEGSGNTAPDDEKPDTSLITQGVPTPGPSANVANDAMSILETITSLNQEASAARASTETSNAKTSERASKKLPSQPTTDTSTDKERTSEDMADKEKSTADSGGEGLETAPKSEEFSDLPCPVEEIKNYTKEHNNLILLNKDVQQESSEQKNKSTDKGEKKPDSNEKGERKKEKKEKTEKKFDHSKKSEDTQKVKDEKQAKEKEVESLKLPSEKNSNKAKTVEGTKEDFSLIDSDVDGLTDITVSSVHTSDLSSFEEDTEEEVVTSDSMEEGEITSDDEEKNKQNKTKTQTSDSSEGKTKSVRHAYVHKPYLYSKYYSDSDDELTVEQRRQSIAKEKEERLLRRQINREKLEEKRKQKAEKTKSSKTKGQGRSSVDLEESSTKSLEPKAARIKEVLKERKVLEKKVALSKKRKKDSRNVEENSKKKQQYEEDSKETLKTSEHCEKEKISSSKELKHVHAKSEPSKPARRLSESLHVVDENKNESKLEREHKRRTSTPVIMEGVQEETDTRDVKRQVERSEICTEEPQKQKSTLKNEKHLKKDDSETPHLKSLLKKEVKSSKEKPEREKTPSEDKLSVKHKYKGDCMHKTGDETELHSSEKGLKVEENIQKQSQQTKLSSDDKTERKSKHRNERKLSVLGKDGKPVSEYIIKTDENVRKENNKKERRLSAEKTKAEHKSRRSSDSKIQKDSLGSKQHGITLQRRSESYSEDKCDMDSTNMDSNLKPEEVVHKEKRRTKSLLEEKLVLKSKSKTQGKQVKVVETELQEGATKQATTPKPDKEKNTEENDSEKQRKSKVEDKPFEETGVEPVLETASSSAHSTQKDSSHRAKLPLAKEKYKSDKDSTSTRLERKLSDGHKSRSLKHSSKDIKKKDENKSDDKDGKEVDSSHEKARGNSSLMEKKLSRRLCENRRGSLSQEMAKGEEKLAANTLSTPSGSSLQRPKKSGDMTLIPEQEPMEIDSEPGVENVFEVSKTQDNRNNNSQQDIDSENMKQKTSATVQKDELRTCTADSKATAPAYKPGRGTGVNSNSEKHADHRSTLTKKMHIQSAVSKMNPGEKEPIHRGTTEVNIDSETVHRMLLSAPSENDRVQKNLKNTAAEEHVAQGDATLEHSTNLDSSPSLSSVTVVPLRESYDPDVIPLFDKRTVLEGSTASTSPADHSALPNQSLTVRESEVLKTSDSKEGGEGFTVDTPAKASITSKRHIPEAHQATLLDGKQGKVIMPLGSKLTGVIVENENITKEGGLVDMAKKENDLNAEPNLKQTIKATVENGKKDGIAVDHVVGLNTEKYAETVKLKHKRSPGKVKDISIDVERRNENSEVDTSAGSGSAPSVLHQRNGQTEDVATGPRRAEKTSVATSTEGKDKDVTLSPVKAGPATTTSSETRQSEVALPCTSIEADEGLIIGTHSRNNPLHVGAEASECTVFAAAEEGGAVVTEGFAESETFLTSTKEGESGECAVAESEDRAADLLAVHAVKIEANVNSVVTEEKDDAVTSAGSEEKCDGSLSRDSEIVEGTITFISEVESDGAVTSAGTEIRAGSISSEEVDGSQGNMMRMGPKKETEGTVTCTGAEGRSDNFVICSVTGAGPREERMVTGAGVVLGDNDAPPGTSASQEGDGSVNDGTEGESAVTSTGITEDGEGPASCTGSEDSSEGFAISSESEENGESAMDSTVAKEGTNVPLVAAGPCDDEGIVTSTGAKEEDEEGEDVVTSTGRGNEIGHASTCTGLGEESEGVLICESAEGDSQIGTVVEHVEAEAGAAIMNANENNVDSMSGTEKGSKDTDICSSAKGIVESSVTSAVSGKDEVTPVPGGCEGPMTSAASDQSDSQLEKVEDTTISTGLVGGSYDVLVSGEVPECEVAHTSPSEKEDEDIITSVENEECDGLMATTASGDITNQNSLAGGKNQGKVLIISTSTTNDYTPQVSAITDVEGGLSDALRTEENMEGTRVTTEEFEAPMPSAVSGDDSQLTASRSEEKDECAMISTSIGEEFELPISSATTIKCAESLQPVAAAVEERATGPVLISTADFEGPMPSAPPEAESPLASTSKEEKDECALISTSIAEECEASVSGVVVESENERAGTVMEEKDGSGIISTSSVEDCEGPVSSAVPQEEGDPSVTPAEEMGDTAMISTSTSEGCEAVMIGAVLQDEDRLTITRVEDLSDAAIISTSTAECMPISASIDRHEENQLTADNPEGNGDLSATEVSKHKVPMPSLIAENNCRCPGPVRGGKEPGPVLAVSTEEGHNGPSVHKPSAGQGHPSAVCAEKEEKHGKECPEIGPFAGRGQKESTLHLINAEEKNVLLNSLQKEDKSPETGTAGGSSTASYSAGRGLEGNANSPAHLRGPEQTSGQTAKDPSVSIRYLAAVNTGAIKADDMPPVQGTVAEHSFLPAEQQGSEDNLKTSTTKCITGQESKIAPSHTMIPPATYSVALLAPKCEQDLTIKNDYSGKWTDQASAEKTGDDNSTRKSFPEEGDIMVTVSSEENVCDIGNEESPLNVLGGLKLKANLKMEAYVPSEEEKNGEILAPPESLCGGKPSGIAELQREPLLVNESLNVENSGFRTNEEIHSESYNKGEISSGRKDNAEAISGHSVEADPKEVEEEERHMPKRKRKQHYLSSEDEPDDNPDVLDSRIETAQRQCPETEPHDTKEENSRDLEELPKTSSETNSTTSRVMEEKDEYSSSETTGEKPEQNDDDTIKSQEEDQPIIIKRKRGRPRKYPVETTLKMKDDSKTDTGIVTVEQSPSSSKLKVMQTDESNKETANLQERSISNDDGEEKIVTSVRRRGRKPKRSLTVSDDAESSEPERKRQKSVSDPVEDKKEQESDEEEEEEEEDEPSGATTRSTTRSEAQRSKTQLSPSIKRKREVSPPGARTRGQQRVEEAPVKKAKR
Experimental: as §1, §2

CAVIN1 = target: T4, CAVIN1 (Homo sapiens, UniProt Q6NZI2)
T4 construct: endogenous in cells; host or cells: MDA-MB-231
T4 sequence (Q6NZI2 whole entry): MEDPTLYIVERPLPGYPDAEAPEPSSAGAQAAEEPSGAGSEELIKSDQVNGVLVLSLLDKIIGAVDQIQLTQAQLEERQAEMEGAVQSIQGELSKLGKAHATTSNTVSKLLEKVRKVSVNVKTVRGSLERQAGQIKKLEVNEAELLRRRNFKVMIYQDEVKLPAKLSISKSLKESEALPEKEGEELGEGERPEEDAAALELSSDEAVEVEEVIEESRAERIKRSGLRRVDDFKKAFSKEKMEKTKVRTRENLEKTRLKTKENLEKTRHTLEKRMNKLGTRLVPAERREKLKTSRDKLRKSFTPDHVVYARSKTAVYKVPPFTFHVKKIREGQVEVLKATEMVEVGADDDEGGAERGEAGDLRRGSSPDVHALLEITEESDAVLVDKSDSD
Experimental: as §1, §2

CCN1 = target: T5, CCN1 (Homo sapiens, UniProt O00622)
T5 construct: endogenous in cells; host or cells: MDA-MB-231
Experimental: as §1, §2

CDK17 = target: T6, CDK17 (Homo sapiens, UniProt Q00537)
T6 construct: endogenous in cells; host or cells: MDA-MB-231
Experimental: as §1, §2

CDKN1A = target: T7, CDKN1A (Homo sapiens, UniProt P38936)
T7 construct: endogenous in cells; host or cells: MDA-MB-231
T7 sequence (P38936 whole entry): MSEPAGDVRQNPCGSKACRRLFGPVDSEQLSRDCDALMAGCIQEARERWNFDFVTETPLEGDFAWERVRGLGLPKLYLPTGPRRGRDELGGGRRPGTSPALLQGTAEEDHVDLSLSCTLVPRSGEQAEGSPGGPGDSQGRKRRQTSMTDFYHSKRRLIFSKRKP
Experimental: as §1, §2

CHEK1 = target: T8, CHEK1 (Homo sapiens, UniProt O14757)
T8 construct: endogenous in cells; host or cells: MDA-MB-231
T8 sequence (O14757 1-476): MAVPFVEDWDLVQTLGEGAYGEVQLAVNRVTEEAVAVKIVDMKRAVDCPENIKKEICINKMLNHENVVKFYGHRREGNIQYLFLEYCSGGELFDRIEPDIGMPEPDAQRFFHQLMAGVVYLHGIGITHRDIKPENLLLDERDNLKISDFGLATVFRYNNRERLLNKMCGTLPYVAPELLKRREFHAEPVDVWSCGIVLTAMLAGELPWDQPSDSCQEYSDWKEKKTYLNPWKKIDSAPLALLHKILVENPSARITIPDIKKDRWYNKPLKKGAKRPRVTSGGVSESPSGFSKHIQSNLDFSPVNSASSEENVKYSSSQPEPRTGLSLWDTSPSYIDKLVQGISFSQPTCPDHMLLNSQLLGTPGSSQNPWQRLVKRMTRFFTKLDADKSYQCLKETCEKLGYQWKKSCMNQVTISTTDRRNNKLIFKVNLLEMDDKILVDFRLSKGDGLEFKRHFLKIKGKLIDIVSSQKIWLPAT
Experimental: as §1, §2

ELAVL1 = target: T9, ELAVL1 (Homo sapiens, UniProt Q15717)
T9 construct: 148 targets unique to Compound 1 in MDA-MB-231 intact cells; endogenous in cells; host or cells: MDA-MB-231
Experimental: as §1, §2

FGFRL1 = target: T10, FGFRL1 (Homo sapiens, UniProt Q8N441)
T10 construct: 148 targets unique to Compound 1 in MDA-MB-231 intact cells; endogenous in cells; host or cells: MDA-MB-231
Experimental: as §1, §2

FOS = target: T11, FOS (Homo sapiens, UniProt P01100)
T11 construct: endogenous in cells; host or cells: MDA-MB-231
Experimental: as §1, §2

GSK3A = target: T12, GSK3A (Homo sapiens, UniProt P49840)
T12 construct: endogenous in cells; host or cells: MDA-MB-231
Experimental: as §1, §2

GSKIP = target: T13, GSKIP (Homo sapiens, UniProt Q9P0R6)
T13 construct: 148 targets unique to Compound 1 in MDA-MB-231 intact cells; endogenous in cells; host or cells: MDA-MB-231
Experimental: as §1, §2

HNRNPA2B1 = target: T14, HNRNPA2B1 (Homo sapiens, UniProt P22626)
T14 construct: 148 targets unique to Compound 1 in MDA-MB-231 intact cells; endogenous in cells; host or cells: MDA-MB-231
Experimental: as §1, §2

HNRNPL = target: T15, HNRNPL (Homo sapiens, UniProt P14866)
T15 construct: endogenous in cells; host or cells: MDA-MB-231
Experimental: as §1, §2

IGFBP7 = target: T16, IGFBP7 (Homo sapiens, UniProt Q16270)
T16 construct: endogenous in cells; host or cells: MDA-MB-231
T16 sequence (Q16270 27-282): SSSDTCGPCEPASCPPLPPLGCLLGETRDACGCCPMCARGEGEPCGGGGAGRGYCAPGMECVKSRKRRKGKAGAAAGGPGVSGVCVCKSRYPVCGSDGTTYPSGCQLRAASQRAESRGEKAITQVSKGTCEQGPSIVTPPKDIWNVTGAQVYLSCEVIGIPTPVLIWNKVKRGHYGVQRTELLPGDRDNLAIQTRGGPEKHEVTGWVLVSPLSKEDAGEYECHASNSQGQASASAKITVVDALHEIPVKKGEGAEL
Experimental: as §1, §2

LTBP2 = target: T17, LTBP2 (Homo sapiens, UniProt Q14767)
T17 construct: endogenous in cells; host or cells: MDA-MB-231
Experimental: as §1, §2

LYPLA2 = target: T18, LYPLA2 (Homo sapiens, UniProt O95372)
T18 construct: endogenous in cells; host or cells: MDA-MB-231
T18 sequence (O95372 whole entry): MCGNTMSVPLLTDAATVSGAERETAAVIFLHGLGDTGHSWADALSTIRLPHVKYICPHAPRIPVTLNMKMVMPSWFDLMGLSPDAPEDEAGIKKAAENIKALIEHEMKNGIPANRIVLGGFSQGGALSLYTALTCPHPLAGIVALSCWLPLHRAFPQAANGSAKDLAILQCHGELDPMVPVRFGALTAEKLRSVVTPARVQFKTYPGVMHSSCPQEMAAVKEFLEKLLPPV
Experimental: as §1, §2

MAMDC2 = target: T19, MAMDC2 (Homo sapiens, UniProt Q7Z304)
T19 construct: endogenous in cells; host or cells: MDA-MB-231
Experimental: as §1, §2

MATR3 = target: T20, MATR3 (Homo sapiens, UniProt P43243)
T20 construct: endogenous in cells; host or cells: MDA-MB-231
Experimental: as §1, §2

MPHOSPH8 = target: T21, MPHOSPH8 (Homo sapiens, UniProt Q99549)
T21 construct: endogenous in cells; host or cells: MDA-MB-231
Experimental: as §1, §2

MRPL55 = target: T22, MRPL55 (Homo sapiens, UniProt Q7Z7F7)
T22 construct: endogenous in cells; host or cells: MDA-MB-231
Experimental: as §1, §2

NRP1 = target: T23, NRP1 (Homo sapiens, UniProt O14786)
T23 construct: endogenous in cells; host or cells: MDA-MB-231
Experimental: as §1, §2

PRPF4B = target: T24, PRPF4B (Homo sapiens, UniProt Q13523)
T24 construct: endogenous in cells; host or cells: MDA-MB-231
Experimental: as §1, §2

SART3 = target: T25, SART3 (Homo sapiens, UniProt Q15020)
T25 construct: endogenous in cells; host or cells: MDA-MB-231
Experimental: as §1, §2

SGPP1 = target: T26, SGPP1 (Homo sapiens, UniProt Q9BX95)
T26 construct: endogenous in cells; host or cells: MDA-MB-231
Experimental: as §1, §2

SMAD1 = target: T27, SMAD1 (Homo sapiens, UniProt Q15797)
T27 construct: endogenous in cells; host or cells: MDA-MB-231
T27 sequence (Q15797 whole entry): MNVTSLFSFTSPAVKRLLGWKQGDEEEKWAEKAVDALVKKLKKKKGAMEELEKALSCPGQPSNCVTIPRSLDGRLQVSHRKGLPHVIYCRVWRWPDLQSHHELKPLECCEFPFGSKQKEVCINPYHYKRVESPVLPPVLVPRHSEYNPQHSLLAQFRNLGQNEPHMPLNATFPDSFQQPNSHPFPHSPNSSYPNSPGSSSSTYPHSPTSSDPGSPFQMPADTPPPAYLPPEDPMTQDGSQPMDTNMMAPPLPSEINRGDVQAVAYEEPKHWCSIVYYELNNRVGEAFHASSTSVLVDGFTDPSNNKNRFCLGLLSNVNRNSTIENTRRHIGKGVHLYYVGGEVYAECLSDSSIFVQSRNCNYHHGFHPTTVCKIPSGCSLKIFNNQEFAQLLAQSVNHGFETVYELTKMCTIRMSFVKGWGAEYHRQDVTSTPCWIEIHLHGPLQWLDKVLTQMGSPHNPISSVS
Experimental: as §1, §2

SNX6 = target: T28, SNX6 (Homo sapiens, UniProt Q9UNH7)
T28 construct: endogenous in cells; host or cells: MDA-MB-231
T28 sequence (Q9UNH7 whole entry): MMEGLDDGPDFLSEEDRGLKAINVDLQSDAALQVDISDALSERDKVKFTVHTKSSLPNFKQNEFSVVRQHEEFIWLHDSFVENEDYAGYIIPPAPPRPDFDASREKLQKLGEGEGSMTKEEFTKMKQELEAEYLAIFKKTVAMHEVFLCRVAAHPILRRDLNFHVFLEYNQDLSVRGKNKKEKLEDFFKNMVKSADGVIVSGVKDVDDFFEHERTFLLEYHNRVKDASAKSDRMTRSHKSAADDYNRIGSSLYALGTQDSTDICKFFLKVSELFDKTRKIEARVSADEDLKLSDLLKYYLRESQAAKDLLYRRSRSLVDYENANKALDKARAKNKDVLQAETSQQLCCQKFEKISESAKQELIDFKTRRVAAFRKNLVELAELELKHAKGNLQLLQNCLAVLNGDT
Experimental: as §1, §2

SYNE2 = target: T29, SYNE2 (Homo sapiens, UniProt Q8WXH0)
T29 construct: endogenous in cells; host or cells: MDA-MB-231
Experimental: as §1, §2

TTK = target: T30, TTK (Homo sapiens, UniProt P33981)
T30 construct: endogenous in cells; host or cells: MDA-MB-231
Experimental: as §1, §2

CN1CCN(c2ccc(Nc3ncc4cc(C#N)c(=O)n(C5CCCC5)c4n3)cc2)CC1 [Compound 1, 8-cyclopentyl-2-((4-(4-methylpiperazin-1-yl)phenyl)amino)-7-oxo-7,8-dihydropyrido[2,3-d]pyrimidine-6-carbonitrile]
Group (CETSA-MS thermal shift) (AP2A1): Destabilization | Group (CETSA-MS thermal shift) (BMP2K): Stabilization | Group (CETSA-MS thermal shift) (BOD1L1): Destabilization | Group (CETSA-MS thermal shift) (CAVIN1): Stabilization | Group (CETSA-MS thermal shift) (CCN1): Stabilization | Group (CETSA-MS thermal shift) (CDK17): Stabilization | Group (CETSA-MS thermal shift) (CDKN1A): Destabilization | Group (CETSA-MS thermal shift) (CHEK1): Destabilization | Group (CETSA-MS thermal shift) (ELAVL1): Stabilization | Group (CETSA-MS thermal shift) (FGFRL1): Stabilization | Group (CETSA-MS thermal shift) (FOS): Destabilization | Group (CETSA-MS thermal shift) (GSK3A): Stabilization | Group (CETSA-MS thermal shift) (GSKIP): Stabilization | Group (CETSA-MS thermal shift) (HNRNPA2B1): Stabilization | Group (CETSA-MS thermal shift) (HNRNPL): Stabilization | Group (CETSA-MS thermal shift) (IGFBP7): Stabilization | Group (CETSA-MS thermal shift) (LTBP2): Stabilization | Group (CETSA-MS thermal shift) (LYPLA2): Destabilization | Group (CETSA-MS thermal shift) (MAMDC2): Stabilization | Group (CETSA-MS thermal shift) (MATR3): Stabilization | Group (CETSA-MS thermal shift) (MPHOSPH8): Stabilization | Group (CETSA-MS thermal shift) (MRPL55): Stabilization | Group (CETSA-MS thermal shift) (NRP1): Stabilization | Group (CETSA-MS thermal shift) (PRPF4B): Stabilization | Group (CETSA-MS thermal shift) (SART3): Destabilization | Group (CETSA-MS thermal shift) (SGPP1): Stabilization | Group (CETSA-MS thermal shift) (SMAD1): Destabilization | Group (CETSA-MS thermal shift) (SNX6): Destabilization | Group (CETSA-MS thermal shift) (SYNE2): Stabilization | Group (CETSA-MS thermal shift) (TTK): Stabilization
